# Source: PMC7516806, “Hybrid Antimicrobial Peptide Targeting Staphylococcus aureus and Displaying Anti-infective Activity in a Murine Model” (Frontiers in Microbiology, 2020)
# What was measured:
# S. aureus 29213 = assay: Cytoplasmic membrane depolarization, diSC3-5; format: cell-based, Staphylococcus aureus; settings: 0.4 μM diSC3-5, 100 mM KCl, ex 622 nm, em 670 nm
# Protocol: The dye diSC3-5 was employed to assay cytoplasmic membrane depolarization activities ([Shao et al., 2018]). S. aureus 29213 was diluted to an OD600 = 0.05 after washing three times with buffer (5 mM HEPES, 5 mM glucose, pH 7.4) when the bacteria grew to mid-log phase. Then, diSC3-5 at a final concentration of 0.4 μM was added into the medium and incubated for 1–1.5 h. The final concentration of 100 mM KCl was then added to the solution for 15 min. The peptides were added to 12-well plates, which were filled with 2 mL of cell suspension. An F-4500 fluorescence spectrophotometer (Hitachi, Japan) was employed to measure the fluorescence value at an excitation wavelength of 622 nm and an emission wavelength of 670 nm. Maximal augmentation was monitored, and the fluorescence of the mixture of bacteria and dye served as the blank control.
# [1] = system: Staphylococcus aureus 29213; assay: Propidium iodide uptake assay; format: cell-based; settings: 0.5 × MIC, MIC and 2 × MIC; 10 μg/mL PI; ex 535 nm, em 617 nm
# Protocol: Staphylococcus aureus 29213 was washed three times with buffer (5 mM HEPES, 5 mM glucose, pH 7.4) after the bacterium grew to the mid-log phase and then diluted to an OD600 = 0.05. Propidium iodide was then added to the final concentration of 10 μg/mL and incubated for 30 min at 4°C. The peptides were added to 12-well plates, which were filled with 2 mL of the cell suspension. An F-4500 fluorescence spectrophotometer (Hitachi, Japan) was employed to measure the fluorescence value at an excitation wavelength of 535 nm and an emission wavelength of 617 nm. Maximal augmentation was monitored, and the fluorescence of the mixture of bacteria and dye served as the blank control ([Morita et al., 2015]).
# [2] = system: Staphylococcus aureus 29213; assay: Bacterial resistance development, serial passaging; format: cell-based; settings: serial passage at sub-MIC for 15 days
# Text: Staphylococcus aureus 29213 was employed to assess the development of resistance by the serial passaging method, as previously described ([Lyu et al., 2017]). Minimum inhibitory concentration testing was first conducted for all of the compounds to be tested, as described above. S. aureus was harvested from 96-well plates of sub-MIC levels, diluted in MHB to a concentration of 2–7 × 10^5 CFU/mL, and then subjected to MIC determination for up to 15 days. The change in MIC values determines the development of antibiotic resistance in S. aureus.
substance,measurement,setting,value
melittin [reference compound],cytoplasmic membrane depolarization (diSC3-5 fluorescence),S. aureus 29213,rapid fluorescence intensity increase
same,PI uptake (PI fluorescence),[1],rapidly disrupted the bacterial membrane and caused PI uptake
penicillin [reference compound],"change in MIC value, 15th day versus first day",[2],16 fold
